This is an account of results in US5563176A (priority 1994, dated 1996).

The subject of one data set is HL-60 cells. Description: cells. Type of data set: cell-based, human.
A further data set has as its system MV522. Description: cells. It is filed as cell-based. To be noted: Homo sapiens, MV522, 48 h, read-out: 48 hour IC50.
The subject of the next data set is HL60 cells (myeloid). Description: cells. The following applies: for IC50: Homo sapiens, HL-60, 2 h, read-out: Two hour IC50. It is filed as cell-based, human.
The subject of a further data set is MV522 cells. As to the kind of experiment: cells. Type of data set: cell-based, human. To be noted: for IC50: Homo sapiens, MV522, 2 h, read-out: Two hour IC50.
For data set [1], the system named is human lung adenocarcinoma MV522. As to the kind of experiment: animal or person. To be noted: MV522, ip, read-out: life span.
For a further data set, the system named is HL60 cells. As to the kind of experiment: cells. It is filed as cell-based. The following applies: Homo sapiens, HL-60, 48 h, read-out: 48 hour IC50.
Another data set concerns 8392 cells. As to the kind of experiment: cells. It is filed as cell-based. To be noted: 48 h, read-out: 48 hour IC50.
The test system of data set [2] is human lung adenocarcinoma MV522. The following applies: in vivo.
The subject of another data set is 8392 cells (B-cell). Description: cells. Type of data set: cell-based. To be noted: 2 h, read-out: Two hour IC50.
Data set [3] concerns HL60/MRI cells (human myeloid leukemia tumor cells). The following applies: in vivo, iv.

Values joined by “and” are separate entries in the source; they are usually repeats but may differ in a detail not shown here. Equal values may be shown once. Read-outs that look alike come from different tables or passages of the source.

For orientation: IC50 means the concentration at which inhibition is half-maximal. The molecule `CC1=Cc2cc(C)c(C)c(C)c2C1=O` [2,5,6,7-tetramethyl-1-indenone, 2,5,6,7-Tetramethyl-1-Indenone] had an IC50 in the data set on HL-60 cells (Homo sapiens, HL-60) of 475 nM.

In the case of `CC1=C(Cc2ccc(O)cc2)C2=C(C)C3(CC3)[C@@](C)(O)C(=O)C2=C1` [6-(p-hydroxybenzyl)acylfulvene, 6-(p-Hydroxybenzyl)acylfulvene], the half-inhibitory concentration (IC50) with MV522 was 615 ± 56 nM; in the data set on HL60 cells (myeloid), 264 ± 38 nM; with MV522 cells, 1180 nM; with HL60 cells, 382 ± 39 nM; with 8392 cells, 11100 nM; in the data set with 8392 cells (B-cell) it was 95200 nM. For the same molecule, the response vs control in vivo at 15 mg/kg in data set [1] worked out at 125 ± 16%. Moreover, the response vs control in vivo at 20 mg/kg in data set [1] came out at 126 ± 22%. The “efficacy in this model” value in data set [2] is “effective in this model”.

Turning to `COc1ccc(CC2=C(C)C=C3C(=O)[C@](C)(O)C4(CC4)C(C)=C32)cc1` [6-(p-methoxybenzyl)acylfulvene], the IC50 came to 1550 nM with MV522; 1960 nM in the data set on HL60 cells (myeloid); 2040 nM in the data set on MV522 cells; 1050 nM with HL60 cells; 7140 nM in the data set with 8392 cells; 35700 nM in the data set with 8392 cells (B-cell).

Take `CC(=O)OCC1=C(C)C=C2C(=O)[C@](C)(O)C3(CC3)C(C)=C21` [6-acetoxymethylacylfulvene]: the IC50 in the data set with MV522 came to 486 ± 42 nM; with HL60 cells (myeloid) it was 3330 nM; in the data set on MV522 cells, 1070 nM; with HL60 cells it was 806 ± 30 nM; in the data set on 8392 cells, 4430 nM; with 8392 cells (B-cell) it was 47500 nM.

As for `CC1=C(Br)C2=C(C)C3(CC3)[C@@](C)(O)C(=O)C2=C1` [6-bromoacylfulvene, 6-Bromoacylfulvene], the IC50 amounted to 356 ± 61 nM in the data set with MV522; 803 ± 88 nM with HL60 cells (myeloid); 4180 nM with MV522 cells; 412 ± 21 nM in the data set with HL60 cells; 1190 nM in the data set with 8392 cells. Besides, the “toxicity to target tumor cells” value with HL60 cells (myeloid) and in the data set with MV522 cells was “markedly toxic” each time. In addition, the “efficacy in this model” value in [2] is recorded as “effective in this model”.

On to `CC1=C(I)C2=C(C)C3(CC3)[C@@](C)(O)C(=O)C2=C1` [6-iodoacylfulvene, 6-Iodoacylfulvene], for which the half-inhibitory concentration (IC50) in the data set on MV522 is 556 ± 47 nM; with HL60 cells (myeloid), 2600 nM; in the data set on MV522 cells, 956 ± 152 nM; in the data set on HL60 cells, 290 ± 12 nM; with 8392 cells, 1700 nM; with 8392 cells (B-cell), 10300 nM. For the same molecule, the “toxicity to target tumor cells” value in the data set with HL60 cells (myeloid) and in the data set with MV522 cells was “markedly toxic” in each case. Further, the response vs control in vivo at 20 mg/kg in data set [1] stood at 120 ± 34%.

In the case of `COc1cccc2c1C(=O)c1c(O)c3c(c(O)c1C2=O)C[C@@](O)(C(=O)CO)C[C@@H]3O[C@H]1C[C@H](N)[C@H](O)[C@H](C)O1` [Adriamycin], the “life span versus control” value in [2] was “no significant increase in the life span”. In data set [2] (ip, 2.6 mg/kg), the life span is 98 ± 12% and 150 ± 25%.

As for `C[C@@]1(CO)[C@H](O)CC[C@@]2(C)[C@H]1CC[C@H]1C[C@@H]3C[C@@]12CC[C@]3(O)CO` [Aphidocolin], the IC50 in the data set with HL-60 cells (read-out: IC50) came to 2100 nM.

With `O=NN(CCCl)C(=O)NCCCl` [BCNU], the IC50 in the data set with HL-60 cells (Homo sapiens, HL-60) came to 23300 nM.

`CC1=CC2=C(C)C3(CC3)[C@@](C)(O)C(=O)C2=C1` [Illudofulvene]: the half-inhibitory concentration (IC50) was found to be 349 ± 23 nM with MV522; 998 ± 244 nM in the data set with HL60 cells (myeloid); 727 ± 180 nM in the data set on MV522 cells; 364 ± 74 nM in the data set with HL60 cells; 833 ± 152 nM with 8392 cells; 66.4 nM with 8392 cells (B-cell). In the data set on HL-60 cells (Homo sapiens, HL-60), this molecule yielded an IC50 of 500 nM. In addition, the “adverse effects (food or water intake, body weight)” value in [3] was “did not display any evidence of adverse effect”. For the same molecule, the “inhibition of tumor growth” value in [3] is “effective at inhibiting tumor growth”.

Consider `Cc1cc2c(c(C)c1CCO)C(=O)[C@@H](C)[C@@H]2O` [Pterosin C], for which the IC50 with HL-60 cells (read-out: IC50) was 12500 nM.

As for `CO[C@@]12[C@H](COC(N)=O)C3=C(C(=O)C(C)=C(N)C3=O)N1C[C@@H]1N[C@@H]12` [mitomycin C], the “life span versus control” value in [2] is on record as “no significant increase in the life span”. The life span in data set [2] (ip, 2.4 mg/kg) was 111 ± 2% and 149 ± 12%.

As for `CC(=O)O[C@H]1C(=O)[C@@]2(C)[C@H]([C@H](OC(=O)c3ccccc3)[C@]3(O)C[C@H](OC(=O)[C@H](O)[C@@H](NC(=O)c4ccccc4)c4ccccc4)C(C)=C1C3(C)C)[C@]1(OC(C)=O)CO[C@@H]1C[C@@H]2O` [taxol], in data set [1], the response vs control in vivo at 4 mg/kg amounted to 100 ± 10%, the response vs control in vivo at 6 mg/kg came to 93 ± 22% and the response vs control in vivo at 20 mg/kg turned out to be 113 ± 22%. For the same molecule, in data set [2], the “life span versus control” value is on record as “no significant increase in the life span” and the tumor growth response result is “failed to inhibit tumor growth”. Further, in data set [2] (ip, 4 mg/kg), the life span turned out to be 120 ± 10%. Moreover, in [2] (ip, 6 mg/kg), the drug toxicity entry is listed as “drug toxicity was now killing the animals”.
